# What was measured:
# cholinergic esterases = format: biochemical
# BoNT/A induced paralysis = details: cited from earlier work
# AChE [1] = biological target: AChE (Electrophorus electricus, UniProt O42275); format: biochemical
# [2] = biological target: AChE purified from Electrophorus electricus (Electric eel) (Electrophorus electricus, UniProt O42275); assay: biochemical; format: biochemical
# [3] = in vivo; cited from earlier work
# AChE [4] = details: cited from earlier work
# BChE = BChE (Equus caballus, UniProt P81908); format: biochemical, equine
# Chain of BChE (P81908 whole entry): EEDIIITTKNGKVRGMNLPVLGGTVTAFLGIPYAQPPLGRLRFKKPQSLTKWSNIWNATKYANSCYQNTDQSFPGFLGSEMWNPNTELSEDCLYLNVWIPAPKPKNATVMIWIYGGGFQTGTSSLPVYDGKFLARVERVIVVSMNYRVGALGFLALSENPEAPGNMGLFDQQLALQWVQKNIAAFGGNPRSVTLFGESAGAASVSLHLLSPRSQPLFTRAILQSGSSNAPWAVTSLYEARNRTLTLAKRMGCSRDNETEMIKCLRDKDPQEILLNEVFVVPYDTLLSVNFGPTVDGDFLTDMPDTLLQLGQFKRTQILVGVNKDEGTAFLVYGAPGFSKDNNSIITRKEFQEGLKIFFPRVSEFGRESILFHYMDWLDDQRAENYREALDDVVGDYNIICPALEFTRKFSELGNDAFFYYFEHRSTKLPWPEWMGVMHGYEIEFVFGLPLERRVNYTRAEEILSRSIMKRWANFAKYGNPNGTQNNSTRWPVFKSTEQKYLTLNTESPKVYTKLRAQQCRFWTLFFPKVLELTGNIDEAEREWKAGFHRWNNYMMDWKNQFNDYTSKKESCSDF
# Chain of AChE purified from Electrophorus electricus (Electric eel) (O42275 24-633): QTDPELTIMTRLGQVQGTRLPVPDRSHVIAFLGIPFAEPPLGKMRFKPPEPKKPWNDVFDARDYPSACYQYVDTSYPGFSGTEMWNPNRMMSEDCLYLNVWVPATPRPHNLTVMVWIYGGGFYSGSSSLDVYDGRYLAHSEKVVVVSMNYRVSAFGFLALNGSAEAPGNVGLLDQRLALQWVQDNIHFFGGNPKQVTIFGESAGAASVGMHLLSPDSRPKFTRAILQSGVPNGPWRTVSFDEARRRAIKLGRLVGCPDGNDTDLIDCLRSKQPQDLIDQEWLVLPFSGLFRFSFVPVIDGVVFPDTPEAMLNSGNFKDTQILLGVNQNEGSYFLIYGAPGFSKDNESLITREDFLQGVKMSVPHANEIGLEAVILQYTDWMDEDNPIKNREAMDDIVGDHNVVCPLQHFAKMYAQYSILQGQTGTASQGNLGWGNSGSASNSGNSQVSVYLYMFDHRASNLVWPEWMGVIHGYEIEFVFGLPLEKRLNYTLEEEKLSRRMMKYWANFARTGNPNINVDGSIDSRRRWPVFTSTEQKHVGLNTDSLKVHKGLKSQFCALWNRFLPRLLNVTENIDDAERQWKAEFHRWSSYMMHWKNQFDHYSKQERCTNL
# Chain of AChE (Electrophorus electricus, UniProt O42275) (O42275 24-633): as above
structure (smiles),measurement,setting,value
COC(=O)Nc1cnccc1N [Compound 16],"enzymatic generation of 3,4-DAP (in words)",cholinergic esterases,"failed as pseudosubstrates to generate 3,4-DAP enzymatically"
"Nc1cncc(N)c1N [3,4,5-triaminopyridine]",paralysis reversal (in words),BoNT/A induced paralysis,paralysis reversal
CC(C)OC(=O)CCC(=O)Nc1ccncc1N [Compound 32],"release of 3,4-DAP upon incubation with AChE (in words)",AChE [1],"negligible release of 3,4-DAP"
same,Ki,[2],3 µM
same,selectivity of AChE over BChE (in words),[2],inhibited AChE selectively over BChE
same,half-life in mouse sera,,2.8 h
"C#CC[n+]1ccc(N)c(N)c1 [3,4-diamino-1-(prop-2-ynl)pyridinium]",paralysis reversal (in words),BoNT/A induced paralysis,paralysis reversal
"Nc1ccncc1 [4-AP, 4-aminopyridine]",toxicity issues at high doses (in words),[3],seizures
"CC(=O)OCC[N+](C)(C)C [ACh, acetylcholine]",Km,AChE [4],400 µM
CC(C)C(=O)Oc1ccc(COC(=O)Nc2ccncc2N)cc1 [Compound 6d],apparent kcat relative to natural substrate BCh,BChE,approximately 10^−4
same,binding to AChE more tightly than Km for ACh,[2],100 fold
same,selectivity of AChE over BChE (in words),[2],moderate selectivity
COC(=O)Nc1ccncc1N [Compound 19],"enzymatic generation of 3,4-DAP (in words)",cholinergic esterases,"failed as pseudosubstrates to generate 3,4-DAP enzymatically"
CCC(=O)Oc1ccc(COC(=O)Nc2ccncc2N)cc1 [Compound 6b],apparent kcat relative to natural substrate BCh,BChE,approximately 10^−4
same,binding to AChE more tightly than Km for ACh,[2],100 fold
same,selectivity of AChE over BChE (in words),[2],moderate selectivity
CC(=O)Nc1ccncc1N [Compound 21],"release of 3,4-DAP upon incubation with AChE (in words)",AChE [1],did not undergo internal release
same,kinetic mechanism of inhibition of AChE,[2],competitive inhibition
"Nc1ccncc1N [3,4-DAP, 3,4-diaminopyridine]",toxicity issues at high doses (in words),[3],seizures
COC(=O)Nc1ccncc1NC(=O)OC [Compound 17],"enzymatic generation of 3,4-DAP (in words)",cholinergic esterases,"failed as pseudosubstrates to generate 3,4-DAP enzymatically"
